Measured values as given in patent EP4748837A1, “AROMATIC AMIDE DERIVATIVE, AND PREPARATION METHOD THEREFOR AND USE THEREOF” (Zhejiang Hisun Pharmaceutical Co., Ltd., priority 2023, dated 2025).

Assays:
[1] = target: T1, recombinant human KIF18A (Homo sapiens, UniProt Q8NI77); test: Inhibition of KIF18A enzyme activity (ADP-Glo assay); format: biochemical; conditions: recombinant human KIF18A 100 nM, ATP 60 µM, tubulin, paclitaxel; read-out: IC50
T1 construct: purchased GenScript
Description: Inhibition degrees of the compounds of the present invention on recombinant human KIF18A enzyme activity in vitro were determined by the following method. An ADP-Glo™ Kinase Assay kit (article number V9102) from Promega Company was used in this method. Detailed experimental operation referred to the instruction of the kit.
An experimental process was briefly described as follows: a test compound was dissolved in DMSO first to prepare a stock solution, then the stock solution was gradiently diluted with a reaction buffer A ([…], 0.01% Pluronic F-68), and a final concentration of the test compound in the reaction system was in a range of 10000 nM-0.15 nM; and a KIF18A protein and ATP working solution was prepared by using a reaction buffer B (15 mM Tris, pH 7.5, 10 mM MgCl2, 0.01% Pluronic F-68, 37.5 µg/ml tubulin, 1.25 µM paclitaxel). The reaction was carried out in a 384-well microplate. The test compound and the recombinant human KIF18A protein (final concentration of 100 nM, entrusted to GenScript for expression) were added into the wells and incubated at room temperature for 20 minutes, and subsequently, an ATP solution (component V915A from the ADP-Glo™ Kinase Assay kit, final concentration of 60 µM) was added to the reaction solution and the system was incubated at room temperature for 20 minutes. Subsequently, 5 µL of ADP-Glo Reagent was added to the reaction systemand the system was incubated at room temperature for 50 minutes. Then, 10 µL of Kinase Detection Reagent was added to the reaction system and the system was incubated at room temperature for 30 minutes. After the incubation was ended, a chemiluminiscence intensity value of each well was determined by a microplate reader in a Luminescence mode.

[2] = test system: OVCAR-3 cells; test: Inhibition of OVCAR-3 cell proliferation (CellTiter-Glo cell viability); format: cell-based; conditions: Homo sapiens; OVCAR-3 cells (TP53 R248Q mutation), 72 hours culture with compound; read-out: IC50
Description: (§1) Influences of the compounds of the present invention on OVCAR-3 cell proliferation were determined by the following method. OVCAR-3 cells (containing TP53 R248Q mutation) were purchased from the Cell Bank of Shanghai Institute of Biochemistry and Cell Biology, Chinese Academy of Sciences, and cultured in an RPMI 1640 culture medium containing 10% fetal bovine serum, 100 U penicillin and 100 µg/mL streptomycin. A cell viability was determined by a CellTiter-Glo® Luminescent Cell Viability Assay kit (Promega, article number G7573).
(§2) An experimental method was operated according to steps in the instruction of the kit, which was briefly described as follows: a test compound was dissolved in DMSO first to prepare a 10 mM stock solution, then the stock solution was diluted with the culture medium to prepare a test sample, and a final concentration of the compound was in a range of 1000 nM-0.015 nM. Cells in a logarithmic growth phase were inoculated into a 96-well cell culture plate at a density of 1000 cells per well, cultured in a 5% CO2 incubator at 37°C overnight, and then the test compound was added to continuously culture for 72 hours. After the culture was ended, 50 uL of CellTiter-Glo detection solution was added to each well , shaken for 5 minutes, and then allowed to stand for 10 minutes, and subsequently, a luminance value of each well of the sample was read by a microplate reader in a Luminescence mode. By comparing with the numerical value of a control group (0.3% DMSO), a percentage inhibition rate of the compound at each concentration point was calculated, and then nonlinear regression analysis was carried out based on concentration logarithm-inhibition rate of the compound in GraphPad Prism 5 software, so as to obtain an IC50 value of the compound for inhibiting the cell proliferation, which was as shown in Table 1. Table 1 IC50 data of the compounds of the present invention for inhibiting OVCAR-3 cell proliferation

[3] = test system: HT-29 cells; test: Inhibition of HT-29 cell proliferation (CellTiter-Glo cell viability); format: cell-based; conditions: Homo sapiens; HT-29 cells (TP53 R273H mutation), 120 hours culture with compound; read-out: IC50
Description: as §1, with “HT-29” for “OVCAR-3”, “R273H” for “R248Q”, “a McCOY's 5A” for “an RPMI 1640”
as §2, with “for 120” for “for 72”, “each well,” for “each well ,”, “Table 2.” for “Table 1.”, “Table 2” for “Table 1”, “inhibiting HT-29” for “inhibiting OVCAR-3”

T1 sequence (Q8NI77 whole entry): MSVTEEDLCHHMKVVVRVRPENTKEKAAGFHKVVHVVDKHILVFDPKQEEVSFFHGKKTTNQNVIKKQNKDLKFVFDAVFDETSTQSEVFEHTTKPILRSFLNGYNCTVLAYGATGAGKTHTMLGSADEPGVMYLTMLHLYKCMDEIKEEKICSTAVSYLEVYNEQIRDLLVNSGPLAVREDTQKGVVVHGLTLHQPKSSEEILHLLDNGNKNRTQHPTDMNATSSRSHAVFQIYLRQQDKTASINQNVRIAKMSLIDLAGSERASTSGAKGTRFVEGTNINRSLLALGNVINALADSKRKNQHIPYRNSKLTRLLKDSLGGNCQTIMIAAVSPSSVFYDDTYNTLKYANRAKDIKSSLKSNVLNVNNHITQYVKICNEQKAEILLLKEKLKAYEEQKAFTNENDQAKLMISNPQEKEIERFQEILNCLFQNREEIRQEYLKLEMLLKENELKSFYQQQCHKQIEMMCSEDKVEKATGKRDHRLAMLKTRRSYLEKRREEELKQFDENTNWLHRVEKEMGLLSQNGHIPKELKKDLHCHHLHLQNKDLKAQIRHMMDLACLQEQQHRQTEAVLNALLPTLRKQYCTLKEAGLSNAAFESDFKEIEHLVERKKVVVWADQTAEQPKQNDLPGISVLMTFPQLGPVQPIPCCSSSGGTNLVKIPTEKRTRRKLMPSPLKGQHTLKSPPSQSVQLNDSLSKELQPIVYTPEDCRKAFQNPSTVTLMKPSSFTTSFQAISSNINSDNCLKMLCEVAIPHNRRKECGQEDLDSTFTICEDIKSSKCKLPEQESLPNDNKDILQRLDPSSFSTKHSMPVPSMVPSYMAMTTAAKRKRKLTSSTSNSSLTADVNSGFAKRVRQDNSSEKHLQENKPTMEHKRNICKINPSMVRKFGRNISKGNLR
T1 sequence (P68363 whole entry partner): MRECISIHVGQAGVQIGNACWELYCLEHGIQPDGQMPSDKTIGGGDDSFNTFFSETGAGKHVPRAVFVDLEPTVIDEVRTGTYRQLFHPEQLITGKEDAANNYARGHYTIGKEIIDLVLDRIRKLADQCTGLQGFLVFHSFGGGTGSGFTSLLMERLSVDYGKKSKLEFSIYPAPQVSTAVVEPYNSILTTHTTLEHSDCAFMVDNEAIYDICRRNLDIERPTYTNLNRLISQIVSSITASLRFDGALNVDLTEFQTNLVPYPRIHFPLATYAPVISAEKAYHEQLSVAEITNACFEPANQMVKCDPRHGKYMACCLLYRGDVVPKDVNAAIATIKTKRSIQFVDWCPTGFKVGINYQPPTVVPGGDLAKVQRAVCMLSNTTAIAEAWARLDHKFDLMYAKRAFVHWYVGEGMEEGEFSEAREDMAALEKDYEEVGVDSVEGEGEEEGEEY
T1 sequence (Q9BVA1 whole entry partner): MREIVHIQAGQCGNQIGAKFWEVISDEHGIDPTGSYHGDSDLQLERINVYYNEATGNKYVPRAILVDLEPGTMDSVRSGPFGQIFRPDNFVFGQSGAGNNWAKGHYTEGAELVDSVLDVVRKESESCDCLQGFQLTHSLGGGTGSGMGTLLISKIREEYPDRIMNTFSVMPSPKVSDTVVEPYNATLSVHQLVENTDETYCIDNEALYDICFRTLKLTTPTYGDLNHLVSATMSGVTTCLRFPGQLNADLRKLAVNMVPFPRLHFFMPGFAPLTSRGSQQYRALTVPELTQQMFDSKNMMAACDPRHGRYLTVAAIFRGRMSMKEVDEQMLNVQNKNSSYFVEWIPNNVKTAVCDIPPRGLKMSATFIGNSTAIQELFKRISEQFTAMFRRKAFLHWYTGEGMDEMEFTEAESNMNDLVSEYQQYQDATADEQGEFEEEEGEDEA

IC50 [1] [nM]	IC50 [2] [nM]	IC50 [3] [nM]	Structure (SMILES)
29.5	42.9		CCS(=O)(=O)Nc1ccc(C(=O)Nc2ccc(C(=O)O)c(N3CCC(F)(F)CC3)c2)c(N2CCC3(CC2)CC3)c1 [Example 2, 2-(4,4-difluoropiperidin-1-yl)-4-(4-(ethylsulfonamido)-2-(6-azaspiro[2.5]octan-6-yl)benzamido)benzoic acid]
62.4	2.5	3.9	CCS(=O)(=O)Nc1ccc(C(=O)Nc2ccc(-c3cccnn3)c(N3CCC(F)(F)CC3)c2)c(N2CCC3(CC2)CC3)c1 [Example 12, N-(3-(4,4-difluoropiperidin-1-yl)-4-(pyridazin-3-yl)phenyl)-4-(ethylsulfonamido)-2-(6-azaspiro[2.5]octan-6-yl)benzamide]
82.9	5.9	11.5	CCS(=O)(=O)Nc1ccc(C(=O)Nc2ccc(-c3ccnnc3)c(N3CCC(F)(F)CC3)c2)c(N2CCC3(CC2)CC3)c1 [Example 13, N-(3-(4,4-difluoropiperidin-1-yl)-4-(pyridazin-4-yl)phenyl)-4-(ethylsulfonamido)-2-(6-azaspiro[2.5]octan-6-yl)benzamide]
120	5.9	10.1	CCS(=O)(=O)Nc1ccc(C(=O)Nc2ccc(-c3ncccn3)c(N3CCC(F)(F)CC3)c2)c(N2CCC3(CC2)CC3)c1 [Example 14, N-(3-(4,4-difluoropiperidin-1-yl)-4-(pyrimidin-2-yl)phenyl)-4-(ethylsulfonamido)-2-(6-azaspiro[2.5]octan-6-yl)benzamide]
69.4	3.7	4.7	O=C(Nc1ccc(-c2cccnn2)c(N2CCC(F)(F)CC2)c1)c1ccc(NS(=O)(=O)C2CC2)cc1N1CCC2(CC1)CC2 [Example 15, 4-(cyclopropanesulfonamido)-N-(3-(4,4-difluoropiperidin-1-yl)-4-(pyridazin-3-yl)phenyl)-2-(6-azaspiro[2.5]octan-6-yl)b enzamide]
106		30.8	CCS(=O)(=O)Nc1ccc(C(=O)Nc2ccc(-c3nccn3C)c(N3CCC(F)(F)CC3)c2)c(N2CCC3(CC2)CC3)c1 [Example 26, N-(3-(4,4-difluoropiperidin-1-yl)-4-(1-methyl-1H-imidazol-2-yl)phenyl)-4-(ethylsulfonamido)-2-(6-azaspiro[2.5]octan-6-yl)benzamide]
30.9	8.1		CCS(=O)(=O)Nc1ccc(C(=O)Nc2ccc(-n3cnnc3)c(N3CCC(F)(F)CC3)c2)c(N2CCC3(CC2)CC3)c1 [Example 27, N-(3-(4,4-difluoropiperidin-1-yl)-4-(4H-1,2,4-triazol-4-yl)phenyl)-4-(ethylsulfonamido)-2-(6-azaspiro[2.5]octan-6-yl)benz amide]
3.8			CCS(=O)(=O)Nc1ccc(C(=O)Nc2ccc(-c3nnn[nH]3)c(N3CCC(F)(F)CC3)c2)c(N2CCC3(CC2)CC3)c1 [Example 33, N-(3-(4,4-difluoropiperidin-1-yl)-4-(1H-tetrazol-5-yl)phenyl)-4-(ethylsulfonamido)-2-(6-azaspiro[2.5]octan-6-yl)benzamide]
90	49.8		CCS(=O)(=O)Nc1ccc(C(=O)Nc2ccc(-c3nnnn3C)c(N3CCC(F)(F)CC3)c2)c(N2CCC3(CC2)CC3)c1 [Example 34, N-(3-(4,4-difluoropiperidin-1-yl)-4-(1-methyl-1H-tetrazol-5-yl)phenyl)-4-(ethylsulfonamido)-2-(6-azaspiro[2.5]octan-6-yl)benzamide]
88			CCS(=O)(=O)Nc1ccc(C(=O)Nc2ccc(-n3ccnc3)c(N3CCC(C)(O)CC3)c2)c(N2CCC3(CC2)CC3)c1 [Example 42, 4-(ethylsulfonamido)-N-(3-(4-hydroxy-4-methylpiperidin-1-yl)-4-(1H-imidazol-1-yl)pheny 1)-2-(6-azaspiro[2.5]octan-6-yl)benzamide]
115	18.8		CCS(=O)(=O)Nc1ccc(C(=O)Nc2ccc(-c3ncc[nH]3)c(N3CCC(C)(O)CC3)c2)c(N2CCC3(CC2)CC3)c1 [Example 43, 4-(ethylsulfonamido)-N-(3-(4-hydroxy-4-methylpiperidin-1-yl)-4-(1H-imidazol-2-yl)pheny 1)-2-(6-azaspiro[2.5]octan-6-yl)benzamide]
130	45.5		CCS(=O)(=O)Nc1ccc(C(=O)Nc2ccc(-n3ccnc3)c(C3(O)CCC(F)(F)CC3)c2)c(N2CCC3(CC2)CC3)c1 [Example 44, N-(3-(4,4-difluoro-1-hydroxycyclohexyl)-4-(1H-imidazol-1-yl)phenyl)-4-(ethylsulfonamido)-2-(6-azaspiro[2.5]octan-6-yl)benzamide]
107	27.4		CCS(=O)(=O)Nc1ccc(C(=O)Nc2ccc(-c3nnco3)c(OCC(F)(F)F)c2)c(N2CCC3(CC2)CC3)c1 [Example 51, N-(4-(1,3,4-oxadiazol-2-yl)-3-(2,2,2-trifluoroethoxy)phenyl)-4-(ethylsulfonamido)-2-(6-azaspiro[2.5]octan-6-yl)benzamide]
125	17.9		CCS(=O)(=O)Nc1ccc(C(=O)Nc2ccc(-c3nnc(C)o3)c(OCC(F)(F)F)c2)c(N2CCC3(CC2)CC3)c1 [Example 52, 4-(ethylsulfonamido)-N-(4-(5-methyl-1,3,4-oxadiazol-2-yl)-3-(2,2,2-trifluoroethoxy)phenyl) -2-(6-azaspiro[2.5]octan-6-yl) benzamide]
	8.7	4.5	[2H]C([2H])([2H])Oc1ccc(NC(=O)c2ccc(NS(=O)(=O)CC)cc2N2CCC3(CC2)CC3)cc1N1CCC(F)(F)CC1 [Example 57, N-(3-(4,4-difluoropiperidin-1-yl)-4-(methoxy-d3)phenyl)-4-(ethylsulfonamido)-2-(6-azaspiro[2.5]octan-6-yl)benzamide]

Structure (SMILES)	IC50 [1] [nM]	IC50 [2] [nM]	IC50 [3] [nM]
CCS(=O)(=O)Nc1ccc(C(=O)Nc2ccc(-c3ccnnc3)c(OC3CC(F)(F)C3)c2)c(N2CCC3(CC2)CC3)c1 [Example 48, N-(3-(3,3-difluorocyclobutoxy)-4-(pyridazin-4-yl)phenyl)-4-(ethylsulfonamido)-2-(6-azaspiro[2.5]octan-6-yl)benzamide]	102	14.4	
CCS(=O)(=O)Nc1ccc(C(=O)Nc2ccc(-c3nnco3)c(OC3CC(F)(F)C3)c2)c(N2CCC3(CC2)CC3)c1 [Example 50, N-(3-(3,3-difluorocyclobutoxy)-4-(1,3,4-oxadiazol-2-yl)phenyl)-4-(ethylsulfonamido)-2-(6-azaspiro[2.5]octan-6-yl)benzamide]	74.3	19.1	
